pIC50: −log10 of the molar value. Entries after “also recorded” stand apart in the source; their conditions may differ. Read-outs that look alike come from different tables or passages of the source. Values belong to the compound of their own block, whether it stands above or below them.
Columns and labels:
post-lung transplant BOS = conditions: prophylactic, compared to placebo; cited from earlier work
[1] = tested on: patients with post-lung transplant BOS; conditions: patients with an FEV1 response vs those without; cited from earlier work
[2] = tested on: patients with post-lung transplant BOS; conditions: switching from cyclosporine to tacrolimus; cited from earlier work
patients with aGVHD = conditions: human, in vivo, cited from earlier work
human JAK1 = human JAK1 (Homo sapiens, UniProt P23458); assay: In vitro JAK kinase assay (Example A), JAK1; format: biochemical; conditions: 1 mM ATP
Description: In some embodiments, the JAK1 pathway inhibitor is a compound of Table 2, or a pharmaceutically acceptable salt thereof.

[3] = tested on: alloreactive mouse model (GVHD); conditions: prophylactic and therapeutic dosing, 60 mg/kg per day or 120 mg/kg per day; cited from earlier work
human JAK2 = human JAK2 (Homo sapiens (Human), UniProt O60674); assay: In vitro JAK kinase assay (Example A), JAK2; format: biochemical; conditions: JAK2/JAK1 IC50 ratio, 1 mM ATP
Sequence of human JAK2 (O60674 828-1132): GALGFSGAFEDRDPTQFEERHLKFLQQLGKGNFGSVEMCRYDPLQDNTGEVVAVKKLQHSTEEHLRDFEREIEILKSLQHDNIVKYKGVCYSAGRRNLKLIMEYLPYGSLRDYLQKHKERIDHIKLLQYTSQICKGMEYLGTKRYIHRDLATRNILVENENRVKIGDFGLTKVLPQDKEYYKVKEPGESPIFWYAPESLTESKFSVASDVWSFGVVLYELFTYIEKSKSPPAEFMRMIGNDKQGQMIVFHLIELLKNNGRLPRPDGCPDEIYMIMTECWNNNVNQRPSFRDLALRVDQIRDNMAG
Method: The compounds in Table 2 were tested in this assay and shown to have the IC50 values in Table 2.

[4] = tested on: pediatric patients with lung cGVHD; conditions: cited from earlier work
patients with cGVHD = conditions: human, in vivo; cited from earlier work
patients with lung cGVHD = conditions: response defined by an increase in FEV1 of ≥10%; cited from earlier work

SMILES: CC[C@H]1OC(=O)[C@H](C)[C@@H](O[C@H]2C[C@@](C)(OC)[C@@H](O)[C@H](C)O2)[C@H](C)[C@@H](O[C@@H]2O[C@H](C)C[C@H](N(C)C)[C@H]2O)[C@](C)(O)C[C@@H](C)CN(C)[C@H](C)[C@@H](O)[C@]1(C)O [Azithromycin]
- cases of BOS (post-lung transplant BOS): fewer cases of BOS
- overall survival (post-lung transplant BOS): overall survival was not affected
- overall survival [1]: overall survival advantage

SMILES: C=CC[C@@H]1/C=C(\C)C[C@H](C)C[C@H](OC)[C@H]2O[C@@](O)(C(=O)C(=O)N3CCCC[C@H]3C(=O)O[C@H](/C(C)=C/[C@@H]3CC[C@@H](O)[C@H](OC)C3)[C@H](C)[C@@H](O)CC1=O)[C@H](C)C[C@@H]2OC [tacrolimus]
- loss of predicted FEV1 [2]: decrease in the loss of predicted FEV1

- pIC50 (human JAK1): > 8.00
- JAK2/JAK1 (human JAK2): >10
SMILES: N#CCC1(n2cc(-c3ncnc4[nH]ccc34)cn2)CN(C2CCN(C(=O)c3ccnc(C(F)(F)F)c3F)CC2)C1 [Compound 1, {1-{1-[3-Fluoro-2-(trifluoromethyl)isonicotinoyl]piperidin-4-yl}-3-[4-(7H-pyrrolo[2,3-d]pyrimidin-4-yl)-1H-pyrazol-1-yl]azetidin-3-yl}acetonitrile]
- clinical efficacy in acute GVHD (patients with aGVHD; listed as itacitinib): demonstrated clinical efficacy; also recorded: significant clinical activity
- GVHD score [3]: improvement in the GVHD score

SMILES: N#CC[C@H](C1CCCC1)n1cc(-c2ncnc3[nH]ccc23)cn1 [ruxolitinib]
- clinical efficacy in acute GVHD (patients with aGVHD): demonstrated clinical efficacy
- increase in FEV1 ([4]; 1 patient): 9%
- responses ([4]; 5 pediatric patients (4 evaluable)): 2
- decrease of the steroid requirement ([4]; final patient): > 50%
- patients able to wean steroids completely ([4]; human, in vivo): Four out of five
- clinical efficacy in chronic GVHD (patients with cGVHD): produced clinical efficacy
- patients with FEV1 responses (patients with lung cGVHD): 4 out of 5
